Test results from patent US11149292B2, “Processes for the preparation of (R)-2-(7-(4-cyclopentyl-3-(trifluoromethyl)benzyloxy)-1,2,3,4-tetrahydrocyclopenta[B]indol-3-yl)acetic acid and salts thereof” (Arena Pharmaceuticals, Inc., priority 2010, dated 2021).

Tests used:
[1] = biological target: S1P1 receptor (Homo sapiens (Human), UniProt P21453); experiment: HTRF assay for direct cAMP measurement in recombinant CHO-K1 cells stably transfected with S1P1; assay type: cell-based
Excerpt: CHO-K1 cells were obtained from ATCC® (Manassas, Va.; Catalog #CCL-61). […] The HTRF® assay has been used to determine EC50 values for S1P1 receptor agonists.
HTRF® assay kit was purchased from Cisbio-US, Inc. (Bedford, Mass.; Catalog #62AM4PEC). The HTRF® assay supported by the kit is a competitive immunoassay between endogenous cAMP produced by the CHO-K1 cells and tracer cAMP labeled with the dye d2. The tracer binding is visualized by a monoclonal anti-cAMP antibody labeled with Cryptate. The specific signal (i.e., fluorescence resonance energy transfer, FRET) is inversely proportional to the concentration of unlabeled cAMP in the standard or sample.
The fluorescence ratio (665 nm/620 nm) of the standards (0.17 to 712 nM cAMP) included in the assay was calculated and used to generate a cAMP standard curve according to the kit manufacturer's instructions. The fluorescence ratio of the samples (test compound or compound buffer) was calculated and used to deduce respective cAMP concentrations by reference to the cAMP standard curve.
The HTRF® assay was carried out using a two-step protocol essentially according to the kit manufacturer's instructions, in […] total volume per well in 384-well plate format (ProxiPlates; PerkinElmer, Fremont, Calif.; catalog #6008280). […] The plate was then further incubated at room temperature for 1 hour, after which the assay plate was read. […]

[2] = system: Male BALB/c mice; experiment: Mouse Peripheral Lymphocyte Lowering (PLL) assay; assay type: in vivo; conditions: 1.00 mg/kg oral dose; blood at 5 hours post-dose; FIG. 1
Experimental: Male BALB/c mice (Charles River Laboratories, Wilmington, Mass.) were housed four per cage and maintained in a humidity-controlled (40 to 60%) and temperature-controlled (68 to 72° F.) facility on a 12 h:12 h light/dark cycle (lights on at 6:30 am) with free access to food (Harlan Teklad, Orange, Calif., Rodent Diet 8604) and water. Mice were allowed one week of habituation to the animal facility before testing. PLL Assay: […] Peripheral blood samples were collected at 5 hours post-dose. The mice were anesthetized with isoflurane and blood was collected via cardiac puncture. A complete cell count (CBC), including lymphocyte count, was obtained using a CELL-DYN® 3700 (Abbott Laboratories, Abbott Park, Ill.) instrument. Results are presented in FIG. 1, in which peripheral blood lymphocyte (PBL) count is shown for the 5 hour group.

[3] = system: Male Sprague-Dawley rats; experiment: Rat Peripheral Lymphocyte Lowering (PLL) assay; assay type: in vivo; conditions: 1.00 mg/kg oral dose; blood at 5 hours post-dose; FIG. 2
Experimental: Male Sprague-Dawley rats (7 weeks of age at start of study) (Charles River Laboratories) were housed two per cage and maintained in a humidity-controlled (40-60%) and temperature-controlled (68-72° F.) facility on a 12 h:12 h light/dark cycle (lights on at 6:30 am) with free access to food (Harlan Teklad, Orange, Calif., Rodent Diet 8604) and water. Rats were allowed one week of habituation to the animal facility before testing. […] Peripheral blood samples were collected at 5 hours post-dose. Blood was collected via indwelling catheter. A complete cell count (CBC), including lymphocyte count, was obtained using a CELL-DYN® 3700 (Abbott Laboratories, Abbott Park, Ill.) instrument. Results are presented in FIG. 2, in which peripheral blood lymphocyte (PBL) count is shown for the 5 hour group.

[4] = system: Female Lewis rats; experiment: Collagen-induced arthritis rat model; assay type: in vivo; conditions: 0.3, 1 and 3 mg/kg p.o., q.d., day 0 to day 16; FIG. 3
Experimental: Female Lewis rats were used in this study. Acclimated animals were anesthetized with isoflurane and given the first collagen injection (day 0). On day 6, they were anesthetized again for the second collagen injection. Collagen was prepared by making a 4 mg/mL solution in 0.01 N acetic acid. Equal volumes of collagen and incomplete Freund's adjuvant were emulsified by hand mixing until a bead of this material held its form when placed in water. Each animal received 300 μL of the mixture each time, spread over 3 subcutaneous sites on the back. Treatment (p.o., q.d., 5 mL/kg dosing volume) began on day 0 and continued through day 16 with vehicle or compounds given at 24 h intervals. Rats were weighed on days 0, 3, 6 and 9 through 17 and caliper measurements of the ankles taken on days 9 through 17.

[5] = system: Female C57BL/6 mice; experiment: MOG-induced experimental autoimmune encephalomyelitis (EAE) in mice; assay type: in vivo, mouse; conditions: 0.3, 1 and 3 mg/kg orally once a day from day 3 until day 21; FIG. 4
[6] = system: Male Sprague-Dawley rats; experiment: Cardiac telemetry in the rat (exemplary bradycardia assay); assay type: in vivo; conditions: oral, vehicle PEG400; heart rate measured over a 120 min period
Experimental: Male Sprague-Dawley rats (250-300 g at time of surgery) were implanted by Charles River Laboratories (Wilmington, Mass.) with cardiac transmitting devices (Data Sciences PhysioTel C50-PXT) into the peritoneal space, with a pressure-sensing catheter inserted into the descending aorta. Rats are allowed at least one week to recover. Rats were housed in individual cages and maintained in a humidity-controlled (30-70%) and temperature-controlled (20-22° C.) facility on a 12 h:12 h light/dark cycle (lights on at 7:00 am) with free access to food (Harlan-Teklad, Orange, Calif., Rodent Diet 8604) and water. Rats were allowed one week of habituation to the animal facility before testing.
The implanted transmitting devices transmitted continuous measurements of blood pressure (systolic, diastolic, mean arterial, pulse), heart rate, body temperature, and motor activity in freely moving conscious animals. […] Telemetry recording occurred over a 21-h period, starting at noon and continuing until 9:00 am the following day. […]
By way of illustration and not limitation, the rats were administered vehicle (PEG 400) and (R)-2-(7-(4-cyclopentyl-3-(trifluoromethyl)benzyloxy)-1,2,3,4-tetrahydrocyclopenta[b]indol-3-yl)acetic acid and heart rate was then measured over a 120 min period.

S1P1 receptor, sequence (P21453 whole entry): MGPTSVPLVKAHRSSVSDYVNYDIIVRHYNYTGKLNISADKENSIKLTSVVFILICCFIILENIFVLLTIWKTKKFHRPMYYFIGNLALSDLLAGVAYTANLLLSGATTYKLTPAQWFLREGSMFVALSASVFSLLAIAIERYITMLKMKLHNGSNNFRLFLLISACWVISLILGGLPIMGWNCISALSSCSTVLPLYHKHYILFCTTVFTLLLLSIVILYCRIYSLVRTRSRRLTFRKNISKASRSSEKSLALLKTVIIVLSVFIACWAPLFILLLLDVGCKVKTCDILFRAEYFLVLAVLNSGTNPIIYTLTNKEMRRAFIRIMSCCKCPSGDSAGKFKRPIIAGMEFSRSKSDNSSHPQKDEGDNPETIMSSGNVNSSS

S1P1 receptor agonism (decrease of cAMP concentration) [1]: agonist of the S1P1 receptor
SMILES: O=C(O)C[C@H]1CCc2c1[nH]c1ccc(OCc3ccc(C4CCCC4)c(C(F)(F)F)c3)cc21 [(R)-2-(7-(4-cyclopentyl-3-(trifluoromethyl)benzyloxy)-1,2,3,4-tetrahydrocyclopenta[b]indol-3-yl)acetic acid]
peripheral blood lymphocyte (PBL) count lowering vs vehicle [2]: exhibited activity for inducing PBL lowering (lymphopenia)
peripheral blood lymphocyte (PBL) count lowering vs vehicle [3]: exhibited activity for inducing PBL lowering (lymphopenia)
reduction of mean ankle diameter [4]: exhibited activity for reducing mean ankle diameter
reduction of severity of disease symptoms (clinical score) in EAE [5]: exhibited activity in the mouse EAE assay
reduction of heart rate (bradycardia) vs vehicle [6]: no or substantially no reduction of heart rate
